Active and inactive are the calls of the source. No cut-off for these calls is given here.
Assays:
[1] = test system: HeLa; assay: Inhibition of beta-tubulin assembly in human HeLa cells assessed as effect on microtubule density up to 40 uM after 18 hrs by immunofluorescence assay; type: cell-based
[2] = test system: PC-3; assay: Cytotoxicity against human PC3 cells after 48 hrs by sulforhodamine B assay; type: functional, cell-based; settings: PC-3, 48 h
[3] = test system: HeLa; assay: Inhibition of beta-tubulin assembly in human HeLa cells assessed as effect on microtubule density at 5 uM after 18 hrs by immunofluorescence assay; type: cell-based
[4] = test system: HeLa; assay: Cytotoxicity against human HeLa cells after 48 hrs by sulforhodamine B assay; type: functional, cell-based
[5] = test system: MDA-MB-231; assay: Cytotoxicity against human MDA-MB-231 cells after 48 hrs by sulforhodamine B assay; type: functional, cell-based; settings: MDA-MB-231, 48 h
[6] = test system: MDA-MB-435; assay: Cytotoxicity against human MDA-MB-435 cells after 48 hrs by sulforhodamine B assay; type: functional, cell-based; settings: MDA-MB-435, 48 h

COC1=CC(=O)C(CCC(=O)c2ccc(OC)c(OC)c2)=C(OC)C1=O [EVELYNIN]
inhibition [1]: inactive
IC50 [2]: 4.7 µM
inhibition [3]: inactive
IC50 [4]: 6.3 µM
IC50 [5]: 3.9 µM
IC50 [6]: 4.1 µM
